Values of other authors in patent publication US6764693B1, “Free radical quenching composition and a method to increase intracellular and/or extracellular antioxidants” (Amaox, Ltd., priority 1992, dated 2004).

Experiments:
[1] = pH of 1.0
[2] = tested on: HIV in U1 cell line (promonocytes); details: increasing thiol concentration in culture medium of U1 cells
[3] = separate experimental protocols
[4] = free GSH, intravenous
[5] = oxidants from activated leukocytes
[6] = antioxidant placed in liposomes
T lymphocytes = details: activated leukocytes combined with T lymphocytes

**Q.** Which results are given for `CC(=O)N[C@@H](CS)C(=O)O` [NAC, N-acetyl-cysteine]?
**A.** rate constant K2 against the hydroxyl radical [1]: 1.36×10^10; effect on HIV [2]: suppression of viral assembly, HIV reverse transcriptase production and viral replication

**Q.** Which mortality [3] does the source give for `CC(C)(C)/[N+]([O-])=C/c1ccccc1` [PBN, phenyltertylnitrone] here?
**A.** 42%

**Q.** With `N[C@@H](CCC(=O)N[C@@H](CS)C(=O)NCC(=O)O)C(=O)O` [glutathione] as the compound, how does the “rate constant K2 against the hydroxyl radical” value [1] read?
**A.** 8.8×10^9

**Q.** And the mortality [3]?
**A.** 100%

**Q.** And the t½ [4]?
**A.** approximately 1.6 minutes

**Q.** What about the “effect on HIV” value [2] of the same compound?
**A.** suppression of viral assembly, HIV reverse transcriptase production and viral replication

**Q.** What does the source list for `Cc1c(C)c2c(c(C)c1O)CCC(C)(CCCC(C)CCCC(C)CCCC(C)C)O2` (stereo not drawn) [vitamin E, alpha-tocopherol]?
**A.** effect on lipid peroxidation of liposomes [5]: conferred protection against lipid peroxidation; mortality [3]: 46%; effect on lipid peroxidation in liposomes exposed to uv [6]: inhibited

**Q.** Which “effect on lipid peroxidation of liposomes” value [5] does the source give for beta carotene [beta-carotene] here?
**A.** conferred protection against lipid peroxidation

**Q.** What about the “effect on lipid peroxidation in liposomes exposed to uv” value [6] of the same compound?
**A.** inhibited

**Q.** For catalase, which “effect on lipid peroxidation of liposomes” value [5] is on record?
**A.** inhibited peroxidation

**Q.** And the “suppression of lymphocytic function” value (T lymphocytes)?
**A.** no suppression of lymphocytic function

**Q.** With glutathione ester [GSE] as the compound, how does the “effect on HIV” value [2] read?
**A.** suppression of viral assembly, HIV reverse transcriptase production and viral replication
